We go through 1 compound from ChEMBL document CHEMBL1133319, “Eryloside F, a novel penasterol disaccharide possessing potent thrombin receptor antagonist activity” (Bioorg Med Chem Lett, 2000).

As a reminder, the IC50 is the concentration that gives 50% inhibition. Read a low IC50 as greater potency in that assay.

Assay [1] is filed under the species Homo sapiens. Put plainly: Inhibitory concentration of compound was determined against U-46619 (3 uM) induced platelet aggregation. It is filed as functional.
For assay [2], the species on record is Homo sapiens. Put plainly: Inhibitory concentration of compound was determined against SFLLRN (3 uM) induced platelet aggregation. It is filed as functional.

In brackets after ≈: the same amount, converted by molar mass.

As for `CC(C)=CCC[C@@H](C)[C@H]1CC[C@@]2(C(=O)O)C3=C(CC[C@]12C)[C@@]1(C)CC[C@H](O[C@@H]2OC[C@H](O)[C@H](O)[C@H]2O[C@@H]2O[C@H](CO)[C@H](O)[C@H](O)[C@H]2O)C(C)(C)[C@@H]1CC3` [ERYLOSIDE F], the IC50 was found to be 1.7 µg/mL (≈ 2.26 µM) in the assay listed under Homo sapiens [1] and 0.3 µg/mL (≈ 0.399 µM) in the assay filed under Homo sapiens [2].
